Experimental data published in patent US20230115534A1 (ARKUDA THERAPEUTICS, priority 2019, published 2023).
Counter-ions that a name gives are not always drawn.

Tested on: progranulin (PGRN)
Experiment: progranulin induction cellular assay (PGRN assay), ELISA-based readout
Conditions: PGRN assay as described: mouse primary microglia, primary cortical neurons and BV-2 cell lines; secreted mouse PGRN in medium by ELISA; cell type for Table B not specified
Procedure: Cellular Assays: To measure the efficacy of compounds, a progranulin induction cellular assay in mouse primary microglia (pMG), primary cortical neurons, and BV-2 cell lines is used. BV-2 cells are split the day before plating into a 96 well plate format at approximately 80%. Cells should be plated the day before and allowed for 1 hour attachment period and for 16 hour incubation. Levels of progranulin secreted into the cell culture medium or retained in the cell lysate can be quantified using an ELISA-based readout and measurement of secreted mouse PGRN in the medium was assessed by the methodology published by Ghidoni et al. 2012. Standard ELISA kits to measure PGRN are available from vendors such as Adipogen, R&D, and Biovendor.
Table B below presents the results of a PGRN assay as described above.

Compound	EC50
N[C@H]1CC[C@H]1OC(=O)N1CCc2ccccc2[C@@H]1c1ccc(F)cc1 (single isomer, unassigned) [Compound 4037]	> 10000 nM
N[C@@H]1CC[C@@H]1OC(=O)N1CCc2ccccc2[C@@H]1c1ccc(F)cc1 (single isomer, unassigned) [Compound 4038]	1690 nM
N[C@@H]1CC[C@H]1OC(=O)N1CCc2ccccc2[C@@H]1c1ccc(F)cc1 (single isomer, unassigned) [Compound 4039, hydrochloride]	1210 nM
N[C@H]1CCC1OC(=O)N1CCc2ccccc2[C@@H]1c1ccc(F)cc1 (single isomer, unassigned) [Compound 4040, hydrochloride]	2330 nM
NC12CC(NC(=O)N3CCc4ccccc4C3c3ccc(F)cc3F)(C1)C2 (single isomer, unassigned) [Compound 4137, N-(3-aminobicyclo[1.1.1]pentan-1-yl)-1-(2,4-difluorophenyl)-3,4-dihydroisoquinoline-2(1H)-carboxamide]	91 nM
NC12CC(NC(=O)N3CCc4ccccc4C3c3ccc(F)cc3F)(C1)C2 (single isomer, unassigned) [Compound 4138, N-(3-aminobicyclo[1.1.1]pentan-1-yl)-1-(2,4-difluorophenyl)-3,4-dihydroisoquinoline-2(1H)-carboxamide]	5590 nM
N[C@@H]1C[C@H](NC(=O)N2CCc3ccccc3[C@@H]2c2ccc(F)cc2)CC(F)(F)C1 (single isomer, unassigned) [Compound 4141]	201 nM
N[C@H]1C[C@@H](NC(=O)N2CCc3ccccc3[C@@H]2c2ccc(F)cc2)CC(F)(F)C1 (single isomer, unassigned) [Compound 4142]	810 nM
NC[C@]1(O)C[C@@H](C(=O)N2CCc3ccccc3[C@@H]2c2ccc(F)cc2)C1 (single isomer, unassigned) [Compound 4153]	130 nM
NC1CCC1COC(=O)N1CCc2ccccc2[C@@H]1c1ccc(F)cc1 (stereo in doubt) [Compound 4062, ((1R,2R)-2-aminocyclobutyl)methyl (S)-1-(4-fluorophenyl)-3,4-dihydroisoquinoline-2(1H)-carboxylate]	334 nM
NC12CC(OC(=O)N3CCc4ccccc4[C@@H]3c3ccc(F)cc3)(C1)C2 [Compound 4001, 3-Aminobicyclo[1.1.1]pentan-1-yl (S)-1-(4-fluorophenyl)-3,4-dihydroisoquinoline-2(1H)-carboxylate]	440 nM
NC12CC(NC(=O)N3CCc4ccccc4[C@@H]3c3ccc(F)cc3)(C1)C2 [Compound 4002, (S)—N-(3-aminobicyclo[1.1.1]pentan-1-yl)-1-(4-fluorophenyl)-3,4-dihydroisoquinoline-2(1H)-carboxamide]	266 nM
NC12CC(NC(=O)N3CCc4ccccc4[C@H]3c3ccc(F)cc3)(C1)C2 [Compound 4003, (R)—N-(3-aminobicyclo[1.1.1]pentan-1-yl)-1-(4-fluorophenyl)-3,4-dihydroisoquinoline-2(1H)-carboxamide]	720 nM
CNC12CC(NC(=O)N3CCc4ccccc4[C@@H]3c3ccc(F)cc3)(C1)C2 [Compound 4004, (S)-1-(4-fluorophenyl)-N-(3-(methylamino)bicyclo[1.1.1]pentan-1-yl)-3,4-dihydroisoquinoline-2(1H)-carboxamide]	225 nM
C#CCNC12CC(NC(=O)N3CCc4ccccc4[C@@H]3c3ccc(F)cc3)(C1)C2 [Compound 4005, (S)-1-(4-fluorophenyl)-N-(3-(prop-2-yn-1-ylamino)bicyclo[1.1.1]pentan-1-yl)-3,4-dihydroisoquinoline-2(1H)-carboxamide 2,2,2-trifluoroacetate]	> 10000 nM
C#CCNC12CC(N(CC#C)C(=O)N3CCc4ccccc4[C@@H]3c3ccc(F)cc3)(C1)C2 [Compound 4006, (S)-1-(4-fluorophenyl)-N-(prop-2-yn-1-yl)-N-(3-(prop-2-yn-1-ylamino)bicyclo[1.1.1]pentan-1-yl)-3,4-dihydroisoquinoline-2(1H)-carboxamide]	> 10000 nM
CS(=O)(=O)CCNC12CC(NC(=O)N3CCc4ccccc4[C@@H]3c3ccc(F)cc3)(C1)C2 [Compound 4007, (S)-1-(4-fluorophenyl)-N-(3-((2-(methylsulfonyl)ethyl)amino)bicyclo[1.1.1]pentan-1-yl)-3,4-dihydroisoquinoline-2(1H)-carboxamide 2,2,2-trifluoroacetate]	> 10000 nM

Compound	EC50
CS(=O)(=O)CCNC12CC(N(CCS(C)(=O)=O)C(=O)N3CCc4ccccc4[C@@H]3c3ccc(F)cc3)(C1)C2 [Compound 4008, (S)-1-(4-fluorophenyl)-N-(2-(methylsulfonyl)ethyl)-N-(3-((2-(methylsulfonyl)ethyl)amino)bicyclo[1.1.1]pentan-1-yl)-3,4-dihydroisoquinoline-2(1H)-carboxamide]	> 10000 nM
CNC12CC(N(C)C(=O)N3CCc4ccccc4[C@@H]3c3ccc(F)cc3)(C1)C2 [Compound 4009, (S)-1-(4-fluorophenyl)-N-methyl-N-(3-(methylamino)bicyclo[1.1.1]pentan-1-yl)-3,4-dihydroisoquinoline-2(1H)-carboxamide]	> 10000 nM
CN(C(=O)N1CCc2ccccc2[C@@H]1c1ccc(F)cc1)C12CC(N)(C1)C2 [Compound 4010, (S)—N-(3-aminobicyclo[1.1.1]pentan-1-yl)-1-(4-fluorophenyl)-N-methyl-3,4-dihydroisoquinoline-2(1H)-carboxamide]	> 10000 nM
C#CCOCCNC12CC(NC(=O)N3CCc4ccccc4[C@@H]3c3ccc(F)cc3)(C1)C2 [Compound 4011, (S)-1-(4-fluorophenyl)-N-(3-((2-(prop-2-yn-1-yloxy)ethyl)amino)bicyclo[1.1.1]pentan-1-yl)-3,4-dihydroisoquinoline-2(1H)-carboxamide]	5160 nM
O=C(NC12CC(N3CCCC3)(C1)C2)N1CCc2ccccc2[C@@H]1c1ccc(F)cc1 [Compound 4012, (S)-1-(4-fluorophenyl)-N-(3-(pyrrolidin-1-yl)bicyclo[1.1.1]pentan-1-yl)-3,4-dihydroisoquinoline-2(1H)-carboxamide]	7810 nM
O=C(NC12CC(N3CCOCC3)(C1)C2)N1CCc2ccccc2[C@@H]1c1ccc(F)cc1 [Compound 4013, (S)-1-(4-fluorophenyl)-N-(3-morpholinobicyclo[1.1.1]pentan-1-yl)-3,4-dihydroisoquinoline-2(1H)-carboxamide]	> 10000 nM
O=C(OC12CC(NCC(F)(F)F)(C1)C2)N1CCc2ccccc2[C@@H]1c1ccc(F)cc1 [Compound 4014, 3-((2,2,2-trifluoroethyl)amino)bicyclo[1.1.1]pentan-1-yl (S)-1-(4-fluorophenyl)-3,4-dihydroisoquinoline-2(1H)-carboxylate]	> 10000 nM
CC(=O)NC12CC(OC(=O)N3CCc4ccccc4[C@@H]3c3ccc(F)cc3)(C1)C2 [Compound 4015, 3-Acetamidobicyclo[1.1.1]pentan-1-yl (S)-1-(4-fluorophenyl)-3,4-dihydroisoquinoline-2(1H)-carboxylate]	> 10000 nM
CC(=O)NC12CC(NC(=O)N3CCc4ccccc4[C@@H]3c3ccc(F)cc3)(C1)C2 [Compound 4016, (S)—N-(3-acetamidobicyclo[1.1.1]pentan-1-yl)-1-(4-fluorophenyl)-3,4-dihydroisoquinoline-2(1H)-carboxamide]	> 10000 nM
CS(=O)(=O)NC12CC(NC(=O)N3CCc4ccccc4[C@@H]3c3ccc(F)cc3)(C1)C2 [Compound 4017, (S)-1-(4-fluorophenyl)-N-(3-(methylsulfonamido)bicyclo[1.1.1]pentan-1-yl)-3,4-dihydroisoquinoline-2(1H)-carboxamide]	> 10000 nM
CS(=O)(=O)NC12CC(OC(=O)N3CCc4ccccc4[C@@H]3c3ccc(F)cc3)(C1)C2 [Compound 4018, 3-(Methylsulfonamido)bicyclo[1.1.1]pentan-1-yl (S)-1-(4-fluorophenyl)-3,4-dihydroisoquinoline-2(1H)-carboxylate]	> 10000 nM
O=C(NC12CC(NC(=O)C(F)(F)F)(C1)C2)N1CCc2ccccc2[C@@H]1c1ccc(F)cc1 [Compound 4019]	2370 nM
O=C(NC12CC(NS(=O)(=O)C(F)(F)F)(C1)C2)N1CCc2ccccc2[C@@H]1c1ccc(F)cc1 [Compound 4020, (S)-1-(4-fluorophenyl)-N-(3-((trifluoromethyl)sulfonamido)bicyclo[1.1.1]pentan-1-yl)-3,4-dihydroisoquinoline-2(1H)-carboxamide]	3290 nM
O=C(NC12CC(N3CCS(=O)(=O)CC3)(C1)C2)N1CCc2ccccc2[C@@H]1c1ccc(F)cc1 [Compound 4021, (S)—N-(3-(1,1-dioxidothiomorpholino)bicyclo[1.1.1]pentan-1-yl)-1-(4-fluorophenyl)-3,4-dihydroisoquinoline-2(1H)-carboxamide]	> 10000 nM
CN(C)C12CC(NC(=O)N3CCc4ccccc4[C@@H]3c3ccc(F)cc3)(C1)C2 [Compound 4022, (S)—N-(3-(dimethylamino)bicyclo[1.1.1]pentan-1-yl)-1-(4-fluorophenyl)-3,4-dihydroisoquinoline-2(1H)-carboxamide]	5330 nM
O=C(NC12CC(NCC(F)(F)F)(C1)C2)N1CCc2ccccc2[C@@H]1c1ccc(F)cc1 [Compound 4023, (S)-1-(4-fluorophenyl)-N-(3-((2,2,2-trifluoroethyl)amino)bicyclo[1.1.1]pentan-1-yl)-3,4-dihydroisoquinoline-2(1H)-carboxamide]	> 10000 nM
O=C(NC12CC(N3CCCC3=O)(C1)C2)N1CCc2ccccc2[C@@H]1c1ccc(F)cc1 [Compound 4024, (S)-1-(4-fluorophenyl)-N-(3-(2-oxopyrrolidin-1-yl)bicyclo[1.1.1]pentan-1-yl)-3,4-dihydroisoquinoline-2(1H)-carboxamide]	> 10000 nM
